# Measured values reported in patent US20230240293A1, “FUNGICIDAL COMPOSITIONS” (SYNGENTA CROP PROTECTION AG, priority 2020, published 2023).
# Numbered stars: 1 amine (or outer) side, 2 acyl side, 3 side chain; on linkers, the order of the positions; unused ones are H or OH. Square brackets hold non-standard residues; d marks the D form. Peptide text beside a SMILES is read from it. ξ: configuration not given here. ξNMeVal(3-OH) = CNC(C(=O)O)C(C)(C)O; NMeF = CN[CH](Cc1ccccc1)C(=O)O; X1 = CCC(C)C(O[*:1])C(=O)[*:2]; NMeV = CN[CH](C(=O)O)C(C)C
# How the values were obtained:
# Botrytis cinerea = experiment: microbe, parasite or virus in culture; format: cell-based; conditions: 72 hours
# Description: (§1) A synergistic effect exists whenever the action of an active ingredient combination is greater than the sum of the actions of the individual components. The action to be expected E for a given active ingredient combination obeys the so-called COLBY formula and can be calculated as follows (COLBY, S.R. “Calculating synergistic and antagonistic responses of herbicide combination”, Weeds, Vol. 15, pages 20-22; 1967): • ppm = milligrams of active ingredient (= a.i.) per liter of spray mixture, • X = % action by active ingredient (A) using p ppm of active ingredient, • Y = % action by active ingredient (B) using q ppm of active ingredient. • According to COLBY, the expected (additive) action of active ingredients (A)+(B) using p+q ppm of active ingredient is • [formula]
# A standard description of the liquid culture tests is provided in Example 1.
# Mycelia fragments or conidia suspensions of a fungus, prepared either freshly from liquid cultures of the fungus or from cryogenic storage, are directly mixed into nutrient broth. DMSO solutions of the test compound (max. 10 mg/mL) is diluted with 0.025% Tween20 by factor 50 and 10 µL of this solution is pipetted into a microtiter plate (96-well format). […] The test plates are incubated in the dark at 24° C. and 96% relative humidity (rh). The inhibition of fungal growth is determined photometrically and visually after 3 - 7 days, depending on the pathosystem, and percent antifungal activity relative to the untreated check is calculated.
# Conidia of the fungus from cryogenic storage were directly mixed into nutrient broth (PDB potato dextrose broth). After placing a DMSO solution of the test compositions into a microtiter plate (96-well format), the nutrient broth containing the fungal spores was added.
# Alternaria solani = experiment: microbe, parasite or virus in culture; format: cell-based
# Description: as §1
# The compositions according to the invention are tested for their biological (fungicidal) activity as dimethylsulfoxide (DMSO) solutions using one or more of the following protocols (Examples 1-1 and 1-2). A standard description of the liquid culture tests is provided in Example 1.
# Mycelia fragments or conidia suspensions of a fungus, prepared either freshly from liquid cultures of the fungus or from cryogenic storage, are directly mixed into nutrient broth. DMSO solutions of the test compound (max. 10 mg/mL) is diluted with 0.025% Tween20 by factor 50 and 10 µL of this solution is pipetted into a microtiter plate (96-well format). The nutrient broth containing the fungal spores/mycelia fragments is then added to give an end concentration of the tested compound. The test plates are incubated in the dark at 24° C. and 96% relative humidity (rh). […]
# Conidia of the fungus from cryogenic storage were directly mixed into nutrient broth (PDB potato dextrose broth). After placing a DMSO solution of the test compositions into a microtiter plate (96-well format) the nutrient broth containing the fungal spores was added.
smiles,measurement,setting,value
CCC(C)C1NC(=O)C2CCCN2C(=O)C(Cc2ccccc2)N(C)C(=O)C(Cc2ccccc2)NC(=O)C(C(C)C)N(C)C(=O)C(C(C)CC)OC(=O)C(C(C)(C)O)N(C)C(=O)C(CC(C)C)NC(=O)C(C(C)C)N(C)C1=O (stereo not drawn) [Aureobasidin A] (cyclo([ξNMeVal(3-OH)][X1][NMeV]F[NMeF]PI[NMeV]L); configuration not given here),(A) inhibition,Botrytis cinerea; Aureobasidin A 0.0025 ppm alone (mefentrifluconazole table),8%
same,(A) inhibition,Botrytis cinerea; Aureobasidin A 0.0050 ppm alone (mefentrifluconazole table),7%
same,(A) inhibition,Botrytis cinerea; Aureobasidin A 0.01 ppm alone (imazalil table),27%
same,(A) inhibition,Botrytis cinerea; Aureobasidin A 0.02 ppm alone (fenhexamid table),53%
same,(A) inhibition,Botrytis cinerea; Aureobasidin A 0.02 ppm alone (imazalil table),46%
same,(A) inhibition,Botrytis cinerea; Aureobasidin A 0.0200 ppm alone (mefentrifluconazole table),22%
same,(A) inhibition,"Alternaria solani; Aureobasidin A 0.0001 ppm alone, growth determined photometrically after 48 hours",0%
same,(A) inhibition,"Alternaria solani; Aureobasidin A 0.0002 ppm alone, 48 hours",11%
same,(A) inhibition,"Alternaria solani; Aureobasidin A 0.0006 ppm alone, 48 hours",0%
same,(A) inhibition,"Alternaria solani; Aureobasidin A 0.0012 ppm alone, 48 hours",0%
same,(A) inhibition,"Alternaria solani; Aureobasidin A 0.0025 ppm alone, 48 hours",0%
same,(A) inhibition,"Alternaria solani; Aureobasidin A 0.0050 ppm alone, 48 hours",0%
same,(A) inhibition,"Alternaria solani; Aureobasidin A 0.04 ppm alone (fenhexamid table), 48 hours",40%
"CC1COC(Cn2cncn2)(c2ccc(Oc3ccc(Cl)cc3)cc2Cl)O1 (stereo not drawn) [Difenoconazole, difenoconazole, reference compound]",inhibition at 0.0156 ppm,"Alternaria solani; Alternaria solani, Difenoconazole 0.0156 ppm alone, 48 hours, read-out: (B) inhibition",30%
same,inhibition at 0.0313 ppm,"Alternaria solani; Alternaria solani, Difenoconazole 0.0313 ppm alone, 48 hours, read-out: (B) inhibition",43%
same,inhibition at 0.0625 ppm,"Alternaria solani; Alternaria solani, Difenoconazole 0.0625 ppm alone, 48 hours, read-out: (B) inhibition",65%
"CC1(C(=O)Nc2ccc(O)c(Cl)c2Cl)CCCCC1 [Fenhexamid, fenhexamid, reference compound]",inhibition at 0.0125 ppm,"Botrytis cinerea; Botrytis cinerea, Fenhexamid 0.0125 ppm alone, read-out: (B) inhibition",2%
same,inhibition at 0.1 ppm,"Alternaria solani; Alternaria solani, Fenhexamid 0.10 ppm alone, 48 hours, read-out: (B) inhibition",0%
"C=CCOC(Cn1ccnc1)c1ccc(Cl)cc1Cl (stereo not drawn) [Imazalil, imazalil, reference compound]",inhibition at 0.0625 ppm,"Botrytis cinerea; Botrytis cinerea, Imazalil 0.0625 ppm alone, read-out: (B) inhibition",5%
same,inhibition at 0.125 ppm,"Botrytis cinerea; Botrytis cinerea, Imazalil 0.1250 ppm alone, read-out: (B) inhibition",22%
"CC(O)(Cn1cncn1)c1ccc(Oc2ccc(Cl)cc2)cc1C(F)(F)F (stereo not drawn) [Mefentrifluconazole, mefentrifluconazole, reference compound]",(B) inhibition,Botrytis cinerea; Mefentrifluconazole 0.0250 ppm alone,27%
